Source: patent US10934250B2, “Process for the preparation of a chelating agent” (TRADE CORPORATION INTERNATIONAL, S.A. UNIPERSONAL, priority 2015, dated 2021)

Assay: Stability constants of Fe3+ chelates by spectrophotometric titration
Assay type: physicochemical
Details: for Stability constant, L + H^+ + Fe^3+ -> FeHL / Stability constant, L + Fe^3+ -> FeL / Stability constant, L + OH^- + Fe^3+ -> FeOHL: chelant agent:Fe^3+ 1:1, I=0.10M (NaCl), titration with 0.1 M NaOH pH 2.7 to 12.0, absorbance at 480 nm; for Stability constant, L + H^+ + Fe^3+ -> FeHL: FeHL predominant at pH <4.0; for Stability constant, L + Fe^3+ -> FeL: FeL predominant at pH 4 to 6.5; for Stability constant, L + OH^- + Fe^3+ -> FeOHL: FeOHL predominant at pH >6.5
Procedure: Stability constant of the Fe^3+ chelate compound of Example 4 (CRENEAHA) were determined spectrophotometrically by titration of a 2.22·10^−4 M (12.5 mg/L) and I=0.10M (NaCl) with 0.1 M NaOH from a pH of 2.7 to a pH of 12.0 and measuring the absorbance variation at 480 nm.
Stability constant of the Fe^3+ chelate compound of Example 2 (CREMEAHA) were determined spectrophotometrically by titration of a […] (12.5 mg/L) and I=0.10M (NaCl) with 0.1 M NaOH from a pH of 2.7 to a pH of 12.0 and measuring the absorbance variation at 480 nm.
Stability constants were determined minimizing the difference between calculated absorbance and experimental absorbance by varying the stability constants of Fe^3+. Every assay was repeated four times. The stability constant value for each compound is not dependent on the concentration of the solution used to carry out the spectrophotometric titration.

Structure (SMILES) | Stability constant, L + H^+ + Fe^3+ -> FeHL | Stability constant, L + Fe^3+ -> FeL | Stability constant, L + OH^- + Fe^3+ -> FeOHL | Stability of the Fe^3+ chelate compared with the Fe^3+ chelate of Example 2 (CREMEAHA) (particularly at high pH)
Cc1ccc(O)c(C(NCCO)C(=O)O)c1 (stereo not shown) [CREMEAHA] | 33.9 | 28.6 | 21.2 | 
Cc1ccc(O)c(C(NCCNCCO)C(=O)O)c1 (stereo not shown) [CRENEAHA] | 37.5 | 33.4 | 26.9 | better stability
